Reference: patent US20170204380A1, “GLYCOSYL TRANSFERASES AND THEIR USES” (TECHNISCHE UNIVERSITAT MUNCHEN, priority 2014, published 2017)

Columns and labels:
VvGT16 [1] = target: T1, VvGT16 (Vitis vinifera, UniProt F6HTJ4)
Experimental: The measurements were performed under the following conditions. […] Radioactivity was determined by LSC.

VvGT14a [2] = target: T2, VvGT14a (Vitis vinifera, UniProt F6H0R6); assay: Substrate screening, radiochemical analysis with UDP-[14C]glucose; assay type: biochemical
Experimental: (§1) In the initial screening, each reaction mixture (200 μL in total) contained Tris-HCl buffer (100 mM, pH 8, 10 mM 2-mercaptoethanol), 37 pmol UDP-[^14C]glucose (0.01 μCi, Biotrend, Köln, Germany), substrate (50 μL of a 1 mg/mL stock solution) and purified protein (0.5-0.8 μg/μL). […] The organic phase was mixed with 2 mL Pro Flow P+ cocktail (Meridian Biotechnologies Ltd., Epsom, UK) and radioactivity was determined by liquid scintillation counting (LSC, Tri-Carb 2800TR, Perkin Elmer, Waltham Mass., USA). Additionally, negative controls without substrate were performed.
(§2) The recombinant proteins were expressed with an N-terminal GST-tag, affinity purified and verified by SDS-PAGE and Western Blot using GST-specific antibody.

VvGT15a [3] = target: T3, VvGT15a (Vitis vinifera, UniProt A0ABY9C1E0); assay: as above; assay type: biochemical
Experimental: as §1, §2

VvGT15b = VvGT15b (Vitis vinifera, UniProt A0ABY9C1E0); assay: as above; assay type: biochemical
Experimental: as §1, §2

VvGT15c = VvGT15c (Vitis vinifera, UniProt A0ABY9C1E0); assay: as above; assay type: biochemical
Experimental: as §1, §2

VvGT16 [4] = target: T1, VvGT16; assay: as above; assay type: biochemical
Experimental: as §1, §2

VvGT14a [5] = target: T2, VvGT14a; assay: Enantioselectivity by chiral phase SPME-GC-MS after hydrolysis of the formed glucoside; assay type: biochemical; conditions: racemic substrate, prolonged incubation (24 h)
Experimental: (§3) To determine the enantioselectivity of VvGT14 and VvGT15 the enantiomeric ratio of glucosidically bound citronellol and linalool was determined by enantioselective GC-MS. Following the incubation, residual citronellol and linalool were completely removed by extraction with dichloromethane. Chronellyl β-D-glucoside which remained in the aqueous phase was hydrolyzed by HCl (2 mL, 0.1 M, pH 1) for one hour at 100° C. to release citronellol (Skouroumounis and Sefton, 2000). In case of linalyl β-D-glucoside an enzymatic hydrolysis (AR 2000, citric acid buffer pH 4, 24 h) was applied due to the instability of linalool in acid solutions (Williams et al., 1982). […] After hydrolysis, citronellol and linalool were analyzed by SPME-GC-MS as described above.
(§4) GC-MS analysis was performed with a Varian GC-450 coupled to a Varian MS-240 ion-trap employing a Phenomenex Zebron ZB-WAXplus column (30 m×0.25 mm×0.25 μm, Aschaffenburg, Germany). Helium flow rate was 1 mL/min. The analysis was carried out in split mode (liquid injections) or splitless mode (SPME measurements) with 220° C. injector temperature. EI (electron impact ionization)-MS spectra were recorded from m/z 40 to 300 (ionization energy 70 eV; trap temperature 170° C.). The oven temperature program was 60° C. (3 min), 10° C./min up to 250° C. (5 min). In case of SPME measurements, liberated aglycones were isolated for 10 min at 60° C. using a fiber coated with a 85 μm film of polyacrylate (SUPELCO, Bellefonte, USA). After extraction the SPME fiber was desorbed for 10 min at 250° C. in the injection port of the GC-MS system and the column oven program was carried out as described above. Enantioselective GC-MS analysis was performed with a Varian GC-450 coupled to a Varian MS-240 ion-trap. The column was a DiAcB (heptakis-(2,3-di-O-acetyl-6-O-tert.-butyldimethylsilyl)-B-cyclodextrin), 26 m×0.32 mm i.d. with a 0.1 μm film. […] GC-MS measurements were recorded in full scan mode. Selected ion monitoring (SIM) mode was used for quantification.

VvGT15a [6] = target: T3, VvGT15a; assay: as above; assay type: biochemical; conditions: racemic substrate, prolonged incubation (24 h)
Experimental: as §3, §4

VvGT14a [7] = target: T2, VvGT14a; conditions: VvGT14a versus UGT85B1
[8] = UDP-glucose fixed 512.5 μM (for UDP-glucose: geraniol fixed 1.25 mM), Tris-HCl pH 8.5, 30° C.

T1 sequence (F6HTJ4 entry or part of it): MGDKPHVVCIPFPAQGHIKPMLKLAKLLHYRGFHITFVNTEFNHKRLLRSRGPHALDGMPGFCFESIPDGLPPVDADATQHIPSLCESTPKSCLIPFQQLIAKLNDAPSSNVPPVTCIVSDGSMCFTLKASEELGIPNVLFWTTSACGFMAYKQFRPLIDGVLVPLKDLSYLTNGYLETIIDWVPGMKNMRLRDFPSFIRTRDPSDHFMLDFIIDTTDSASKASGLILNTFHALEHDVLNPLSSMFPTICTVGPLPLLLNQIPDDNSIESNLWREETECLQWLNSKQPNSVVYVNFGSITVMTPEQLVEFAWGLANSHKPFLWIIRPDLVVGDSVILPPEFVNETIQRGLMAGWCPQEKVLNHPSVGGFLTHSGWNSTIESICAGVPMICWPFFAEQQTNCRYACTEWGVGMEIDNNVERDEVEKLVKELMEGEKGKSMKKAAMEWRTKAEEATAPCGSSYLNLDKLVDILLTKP
T2 sequence (F6H0R6 entry or part of it): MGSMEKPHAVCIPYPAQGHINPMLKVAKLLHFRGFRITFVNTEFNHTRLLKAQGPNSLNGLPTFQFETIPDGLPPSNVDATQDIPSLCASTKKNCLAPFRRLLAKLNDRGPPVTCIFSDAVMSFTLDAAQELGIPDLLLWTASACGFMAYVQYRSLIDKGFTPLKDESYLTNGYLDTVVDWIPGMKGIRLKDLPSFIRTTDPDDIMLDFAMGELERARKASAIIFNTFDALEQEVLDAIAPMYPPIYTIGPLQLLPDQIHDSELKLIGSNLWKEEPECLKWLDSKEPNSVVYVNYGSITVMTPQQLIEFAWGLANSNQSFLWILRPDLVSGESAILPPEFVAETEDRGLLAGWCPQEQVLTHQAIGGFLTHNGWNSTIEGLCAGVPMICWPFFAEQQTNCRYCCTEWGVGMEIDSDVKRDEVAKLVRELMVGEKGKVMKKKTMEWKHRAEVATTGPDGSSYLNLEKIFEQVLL
T3 sequence (A0ABY9C1E0 entry or part of it): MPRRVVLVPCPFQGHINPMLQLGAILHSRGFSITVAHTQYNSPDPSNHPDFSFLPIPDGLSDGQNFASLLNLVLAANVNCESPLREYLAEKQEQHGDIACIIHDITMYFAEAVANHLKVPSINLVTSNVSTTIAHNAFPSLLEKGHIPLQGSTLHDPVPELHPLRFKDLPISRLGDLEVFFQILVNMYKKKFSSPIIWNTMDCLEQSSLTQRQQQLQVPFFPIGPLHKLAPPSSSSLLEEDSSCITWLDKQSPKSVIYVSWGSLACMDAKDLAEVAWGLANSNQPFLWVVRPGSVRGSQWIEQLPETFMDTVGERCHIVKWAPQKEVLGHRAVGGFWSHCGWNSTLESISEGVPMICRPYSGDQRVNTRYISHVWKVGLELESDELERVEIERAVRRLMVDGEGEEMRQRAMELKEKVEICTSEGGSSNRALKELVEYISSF
VvGT15b, sequence (A0ABY9C1E0 entry or part of it): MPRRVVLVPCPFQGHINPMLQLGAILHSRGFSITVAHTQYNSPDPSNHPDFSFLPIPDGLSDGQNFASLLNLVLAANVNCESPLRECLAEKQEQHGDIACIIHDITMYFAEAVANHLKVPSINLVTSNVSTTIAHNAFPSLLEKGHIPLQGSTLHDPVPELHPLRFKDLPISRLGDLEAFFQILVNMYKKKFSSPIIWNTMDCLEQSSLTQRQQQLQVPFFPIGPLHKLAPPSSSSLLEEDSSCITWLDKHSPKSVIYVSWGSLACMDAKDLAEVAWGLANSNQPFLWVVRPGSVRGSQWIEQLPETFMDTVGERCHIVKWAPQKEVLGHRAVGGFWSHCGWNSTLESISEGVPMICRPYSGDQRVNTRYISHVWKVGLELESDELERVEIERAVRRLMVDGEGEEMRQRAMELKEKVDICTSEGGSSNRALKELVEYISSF

SMILES | Km (VvGT16 [1]; [8]) | kcat (VvGT16 [1]; [8]) | transformation of R- and S-citronellol (in words) (VvGT16 [1]; radiochemical assays) | conversion as substrate (in words) (VvGT14a [2]) | conversion as substrate (in words) (VvGT15a [3]) | conversion as substrate (in words) (VvGT15b) | conversion as substrate (in words) (VvGT15c) | conversion as substrate (in words) (VvGT16 [4]) | enantiomeric preference, aglycone liberated from the formed glucoside (VvGT14a [5]) | enantiomeric preference, aglycone liberated from the formed glucoside (VvGT15a [6]) | kcat/KM of VvGT14a higher than the value for UGT85B1 from Sorghum bicolor (VvGT14a [7])
CC(C)=CCCC(C)CCO (racemic) [citronellol (rac), (R,S)-3,7-dimethyl-6-octen-1-ol] | 108 ± 2.5 µM | 0.008 s⁻¹ | same efficiency | preferred | glucosylated primarily | glucosylated primarily | glucosylated primarily | transformed | no enantio-discrimination | no enantio-discrimination | 4 fold
C=CC(C)(O)CCC=C(C)C (racemic) [linalool (rac), (R,S)-3,7-dimethyl-1,6-octadien-3-ol] | – | – | – | catalytic activity | – | – | – | – | slight enrichment of the R-enantiomer | – | –
